How the values were obtained:
SiHa cells = test: Cell cycle and apoptosis in SiHa cells, propidium iodide flow cytometry and morphology; type: cell-based; details: 48 hours
Protocol: Since the thiadiazolin-3,5-dione compounds bind to pRb, data was generated regarding their effect in cells infected with HPV. […] DNA content was determined by propidium iodine staining and analysis by flow cytometry.
Cultured cell lines were seeded in 60 mm tissue culture dishes (Falcon) at 1×10^5 cells/well. […] Cells were then trypsinized, washed with phosphate-buffered saline (1.0 mL; PBS), and fixed in ethanol (80%) for 30 minutes on ice. Fixed cells were spun at 500 g for 5 minutes, rehydrated with PBS (1 mL), and spun again to remove any traces of ethanol. Cells were stained with propidium iodide (250 μL; PI), which was prepared by adding PI (100 μL, 2 mg/ml, Sigma) and RNase A (3.5 μL of 30 mg/ml, Sigma) into PBS (10 mL). Cells were then analyzed at the Wistar Institute Flow Cytometry Core Facility using standard equipment, reagents, and methodologies known in the art.

[1] = biological target: T1, GST-pRbABC/6×His-HPV16-E7CR2-3 complex (Homo sapiens, UniProt P06400); test: ELISA: disruption of pRb/HPV16-E7 complex; type: binding; details: disruption of pRb/viral oncoprotein complex; 500 nM 16E7
T1 construct: made in house; host or cells: pRb: Sf9; E7: E. coli BL21(DE3)
T1 sequence (P06400 376-928): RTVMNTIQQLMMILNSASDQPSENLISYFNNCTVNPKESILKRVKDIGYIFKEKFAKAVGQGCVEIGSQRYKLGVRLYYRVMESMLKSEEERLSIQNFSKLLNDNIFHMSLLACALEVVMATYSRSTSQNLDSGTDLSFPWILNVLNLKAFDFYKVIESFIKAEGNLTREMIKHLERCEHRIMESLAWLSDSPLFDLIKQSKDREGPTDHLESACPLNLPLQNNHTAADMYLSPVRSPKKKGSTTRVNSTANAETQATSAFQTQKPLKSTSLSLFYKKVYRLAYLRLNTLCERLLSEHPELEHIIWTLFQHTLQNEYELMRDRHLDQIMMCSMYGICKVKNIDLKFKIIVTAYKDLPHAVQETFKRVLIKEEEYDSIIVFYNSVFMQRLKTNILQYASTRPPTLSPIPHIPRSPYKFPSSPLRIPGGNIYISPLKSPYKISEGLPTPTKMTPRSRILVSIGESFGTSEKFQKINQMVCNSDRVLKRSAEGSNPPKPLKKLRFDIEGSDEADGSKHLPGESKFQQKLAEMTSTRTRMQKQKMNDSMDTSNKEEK
Protocol: An ELISA assay was utilized with modifications such that the amount of 6×His-HPV16-E7CR2-3 remaining bound to the partner protein on the plate could be measured. The compounds identified in Example 2 were purchased (Lankenau Institute for Medical Research) as powders. Their purity was verified by LC/MS and their structures by NMR. IC50 values were then measured for (i) the compounds identified in Example 1, (ii) the compounds prepared according to Examples 3-5, (iii) 2-phenyl-4-methyl-1,2,4-thiadiazolidin-3,5-dione (available from Molport, Latvia), and (iv) 4-benzyl-2-methyl-1,2,4-thiadiazolidin-3,5-dione (TDZD-8; Catalog No. T8325-5MG, Sigma) using the same ELISA-based assay as described for the high-throughput screen, except that the assay was performed manually in 96-well format and so all volumes used were double those from 384-well format.
All compounds were solubilized in DMSO (50 mM) and diluted for use in the ELISA-based assay at a final DMSO concentration of less than 5%. Ten-fold dilutions of thiadiazolin-3,5-dione compound (starting at 100 μM) were added to a mixture containing GST-pRbABC and 6×His-HPV16E7CR2-3. The amount of E7 remaining was determined by adding a primary anti-His antibody. The concentrations of the compounds in the IC50 experiment spanned the range of enzyme activity from no inhibition to complete inhibition. Three independent IC50 measurements were performed for each compound and the average and standard deviation values are reported. All data was imported into the GraphPad® Software (Prism) for IC50 determination. To calculate the IC50 values, the dose-response curves were fit to one-site (Hill slope=1) sigmoidal-dose-response curves.

[2] = biological target: T2, GST-pRbABC/6×His-Ad5E1ACR1-3 complex (Homo sapiens, UniProt P06400); test: ELISA: disruption of pRb/Ad5-E1A complex; type: binding, adenovirus; details: disruption of pRb/viral oncoprotein complex; 100 nM E1A
T2 construct: made in house; host or cells: pRb: Sf9; E1A: E. coli BL21(DE3)
T2 sequence (P06400 376-928): T1 sequence (P06400 376-928)
Protocol: (§1) A similar ELISA assay was used to assess the ability of the compounds to inhibit the ability of HPV16-E7-mediated disruption of E2F/pRb complexes. For these studies, 6×His-HPV1AE7CR2-3 and 6×His-Ad5E1ACR1-3, containing the L×C×E motif, were employed. The assay described above was modified in such a way that GST-pRbABC alone was added to HPV-E7CR2-3+ compound, HPV-E7CR2-3+DMSO, Ad5-E1ACR1-3+ compound, or Ad5-E1ACR1-3 DMSO. Mouse monoclonal anti-His antibody (Fisher) diluted 1:10,000 was used to detect how much His-E7CR2-3 remained bound to GST-pRbABC on the plate. Mouse monoclonal Ad5-E1A antibody (Abeam) diluted 1:10,000 was used to detect how much E1ACR1-3 remained bound to GST-pRbABC on the plate. All other steps remained unchanged.

[3] = biological target: T3, GST-pRbABC/E2F complex disrupted by 6×His-Ad5E1ACR1-3 (Homo sapiens, UniProt P06400); test: ELISA: inhibition of adenovirus E1A-mediated disruption of pRb/E2F complexes; type: binding; details: E2F remaining bound to pRb; 100 nM E1A
T3 construct: made in house; host or cells: pRb: Sf9; E2F1 and E1A: E. coli BL21(DE3)
T3 sequence (P06400 376-928): T1 sequence (P06400 376-928)
T3 sequence (Q01094 243-437 partner limits assumed): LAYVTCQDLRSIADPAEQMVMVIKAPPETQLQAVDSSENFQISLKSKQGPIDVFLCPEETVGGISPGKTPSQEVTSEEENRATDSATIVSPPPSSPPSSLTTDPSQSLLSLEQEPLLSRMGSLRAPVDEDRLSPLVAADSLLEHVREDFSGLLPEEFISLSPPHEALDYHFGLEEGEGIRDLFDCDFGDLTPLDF
Protocol: (§2) Since HPV-E7 mediates high affinity pRb binding through the association of its L×C×E motif in CR2 to the B domain of pRb, the ability of the thiadiazolidinedione compounds to inhibit the ability of other L×C×E containing viral oncoproteins from disrupting E2F/pRb complexes was tested. The other L×C×E containing viral oncoproteins tested included HPV-E7 from a low risk HPV form (type 1A) and Adenovirus E1A proteins.
as §1

[4] = biological target: T4, GST-pRbABC/6×His-HPV1AE7CR2-3 complex (Homo sapiens, UniProt P06400); test: ELISA: disruption of pRb/HPV1A-E7 complex; type: binding, low risk HPV (type 1A); details: disruption of pRb/viral oncoprotein complex; 500 nM 1AE7
T4 construct: made in house; host or cells: pRb: Sf9; E7: E. coli BL21(DE3)
T4 sequence (P06400 376-928): T1 sequence (P06400 376-928)
Protocol: as §1

pRbAB = biological target: T5, pRbAB (Homo sapiens, UniProt P06400, DEL590-635); test: Isothermal titration calorimetry binding to pRbAB; details: ITC, pRbAB, 22° C.
T5 construct: untagged pRbAB (372-787 with the linker from 590-635 removed); made in house
T5 sequence (P06400 with tags, fused parts or gaps DEL590-635): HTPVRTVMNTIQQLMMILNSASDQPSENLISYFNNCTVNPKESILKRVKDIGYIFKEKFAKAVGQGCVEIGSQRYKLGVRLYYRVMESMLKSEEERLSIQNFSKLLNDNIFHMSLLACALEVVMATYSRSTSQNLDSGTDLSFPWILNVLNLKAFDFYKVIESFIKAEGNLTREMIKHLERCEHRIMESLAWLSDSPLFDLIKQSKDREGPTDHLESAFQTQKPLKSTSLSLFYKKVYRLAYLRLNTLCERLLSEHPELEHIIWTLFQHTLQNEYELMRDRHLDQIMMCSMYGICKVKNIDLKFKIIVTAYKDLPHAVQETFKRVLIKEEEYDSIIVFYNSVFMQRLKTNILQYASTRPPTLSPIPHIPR
Protocol: For use in isothermal titration calorimetry studies, untagged pRbAB (372-787 with the linker from 590-635 removed) was prepared as described in Xiao et al., PNAS USA, 100:2363-2368 (2003).
This example illustrates the ability of the thiadiazolin-3,5-dione compounds to bind directly to a truncated pRb protein construct containing the A and B domains of the pRb pocket (pRbAB) using isothermal titration calorimetry (ITC).
Binding of compounds 1-9 to pRbAB were measured by ITC using a MicroCal™ VP-ITC isothermal titration calorimeter (MicroCal, Inc). Proteins were extensively dialyzed against a buffer containing Hepes (20 mM), pH=7.5, NaCl (150 mM) and Tris carboxy ethyl phosphine (0.1 mM) prior to analysis. Eight to twelve μL injections of 750-1500 μM compound were titrated into a pRb solution (50-150 μM) pre-equilibrated to 22° C. After subtraction of dilution heats, calorimetric data were analyzed with the MicroCal™ Origin® V5.0 (MicroCal Software, Northampton, Mass.).

[5] = biological target: T6, GST-pRbABC/E2F complex disrupted by 6×His-HPV1AE7CR2-3 (Homo sapiens, UniProt P06400); test: ELISA: inhibition of HPV1A-E7-mediated disruption of pRb/E2F complexes; type: binding, low risk HPV (type 1A); details: E2F remaining bound to pRb; 500 nM 1AE7
T6 construct: made in house; host or cells: pRb: Sf9; E2F1 and E7: E. coli BL21(DE3)
T6 sequence (P06400 376-928): T1 sequence (P06400 376-928)
T6 sequence (Q01094 243-437 partner limits assumed): T3 sequence (Q01094 243-437 partner limits assumed)
Protocol: as §2, §1

SiHa cells (HPV 16) = test: MTS cytotoxicity in SiHa cells; type: cell-based; details: 48 hours
Protocol: These 120 compounds were then analyzed for cytotoxicity in cervical cancer cells either infected with HPV16 (SiHa) or negative for infection with HPV (C-33A) (Yee et al., 1985). The metabolic viability of cells was measured using a MTS assay (3-(4,5-dimethylthiazol-2-yl)-5-(3-carboxymethoxyphenyl)-2-(4-sulfophenyl)-2H-tetrazolium).
Cultured cell lines were seeded in 384-well, clear, tissue culture plates (NUNC) at 10,000 cells/well and 1,000 cells/well for C-33A and SiHa, respectively, and maintained overnight. These concentrations were determined based on each cell line's doubling time. […] Cell viability was then monitored by addition of MTS reagent (8 μL; Promega) and measurement at A490 using a Wallac Envision™ plate reader after 3 hours of incubation.
Cultured cell lines were seeded in 384-well, clear, tissue culture plates (NUNC) at 10,000 cells/well, 1,000 cells/well, 1,000 cells/well, 1,000 cells/well, and 2,000 cells/well for C-33A, SiHa, HeLa, TC-1, or HCT116 cells, respectively, and maintained overnight. These concentrations were determined based on each cell line's doubling time. […] Cell viability was then monitored by addition of MTS reagent (8 μL; Promega) and measurement at A490 using a Wallac Envision™ plate reader after 3 hours of incubation.

[6] = 10 μM compound (staurosporine 2 μM)
[7] = SiHa, 10 μM compound (staurosporine 2 μM)

SMILES | morphology of SiHa cells (SiHa cells) | effect on SiHa cells (SiHa cells; [6]) | % Apoptotic (SiHa cells; [7]) | % G0/G1 (SiHa cells; [7]) | % G2/M (SiHa cells; [7]) | % S (SiHa cells; [7]) | IC50 [1] | IC50 [2] | IC50 [3] | IC50 [4] | Kd (pRbAB) | IC50 [5] | cytotoxicity in SiHa cells (SiHa cells (HPV 16))
Cn1c(=O)on(-c2ccc(Cl)c(Cl)c2)c1=O [2-(3,4-dimethyl-phenyl)-4-methyl-1,2,4-oxadiazolin-3,5-dione, reference compound] | maintained the elongated shape | no effect | 0.9% | 71.8% | 16.3% | 11.3% | – | – | – | – | – | – | –
COn1c(=O)sn(-c2ccccc2C)c1=O [Compound 2] | – | – | – | – | – | – | 570 ± 1200 nM | 2600 ± 1300 nM | 640 nM | 3000 ± 2300 nM | 104 ± 25 nM | 3500 ± 1600 nM | –
COc1ccc(-n2sc(=O)n(C)c2=O)cc1 [Compound 6] | – | – | – | – | – | – | 400 nM | 7700 ± 1700 nM | 1700 ± 2700 nM | 1300 ± 1300 nM | 381 ± 31 nM | 3300 ± 1600 nM | –
COc1cccc(-n2sc(=O)n(C)c2=O)c1 [Compound 7] | – | – | – | – | – | – | 290 nM | 2800 ± 2100 nM | 3200 ± 2700 nM | 4000 ± 2500 nM | 815 ± 70 nM | 3500 ± 1700 nM | –
CN[C@@H]1C[C@H]2O[C@@](C)([C@@H]1OC)n1c3ccccc3c3c4c(c5c6ccccc6n2c5c31)C(=O)NC4 [Staurosporine, reference compound] | – | most drastically affected | 34.3% | 31.3% | – | 13.8% | – | – | – | – | – | – | toxic
Cc1cccc(-n2sc(=O)n(C(C)C)c2=O)c1 [Compound 5] | – | – | – | – | – | – | 3200 ± 1300 nM | 3500 ± 1700 nM | 1100 ± 2500 nM | 5500 ± 2700 nM | 210 ± 51 nM | 5500 ± 1500 nM | –
Cc1ccccc1-n1sc(=O)n(C(C)C)c1=O [Compound 1] | – | – | – | – | – | – | – | 5000 ± 1800 nM | 2800 ± 2200 nM | 7900 ± 2100 nM | 165 ± 52 nM | 10600 ± 1300 nM | –

Source: patent publication US9447060B2, “Small molecule modulators of pRb inactivation” (The Wistar Institute of Anatomy and Biology, priority 2011, dated 2016)
